IC50 data for 16 compounds are collected here from US20250197372A1 (priority 2020, published 2025).

Holding throughout (assay type): biochemical
Assay [1] has as its target T1, recombinant alpha-glucosidase I (human full-length glucosidase I, Glu 1) (Homo sapiens, UniProt Q13724).
T1 construct: 6-His (C); made in house; host or cells: HEK-293T cells transduced with BacMam virus (virus raised in Sf9)
T1 sequence (Q13724 1-837): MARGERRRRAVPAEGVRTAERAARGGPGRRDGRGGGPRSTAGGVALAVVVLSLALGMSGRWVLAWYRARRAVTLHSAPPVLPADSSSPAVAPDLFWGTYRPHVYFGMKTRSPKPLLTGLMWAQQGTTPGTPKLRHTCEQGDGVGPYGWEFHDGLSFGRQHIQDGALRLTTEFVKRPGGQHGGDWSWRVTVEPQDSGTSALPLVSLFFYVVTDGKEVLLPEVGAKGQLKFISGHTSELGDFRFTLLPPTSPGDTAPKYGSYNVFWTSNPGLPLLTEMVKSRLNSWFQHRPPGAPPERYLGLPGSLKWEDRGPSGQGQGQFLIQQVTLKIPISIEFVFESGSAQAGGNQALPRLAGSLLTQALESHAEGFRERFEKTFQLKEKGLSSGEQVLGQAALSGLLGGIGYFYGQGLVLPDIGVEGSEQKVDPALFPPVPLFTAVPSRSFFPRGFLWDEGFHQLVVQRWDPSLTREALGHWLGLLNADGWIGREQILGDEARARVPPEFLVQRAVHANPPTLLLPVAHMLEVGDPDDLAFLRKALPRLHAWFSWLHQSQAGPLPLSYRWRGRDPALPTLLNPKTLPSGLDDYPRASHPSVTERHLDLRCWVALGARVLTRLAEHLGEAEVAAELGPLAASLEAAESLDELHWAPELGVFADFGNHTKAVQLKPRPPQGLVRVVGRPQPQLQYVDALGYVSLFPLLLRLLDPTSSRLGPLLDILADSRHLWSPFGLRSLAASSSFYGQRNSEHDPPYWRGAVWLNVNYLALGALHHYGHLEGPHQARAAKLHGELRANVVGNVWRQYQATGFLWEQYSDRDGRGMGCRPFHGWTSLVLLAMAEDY
The assay can be described thus: Alpha-glucosidase I assay (Amplex Red glucose detection, synthetic trisaccharide substrate). The note with it: Glucosidase 1; read-out: Glu 1 IC50. In short, it runs like this:
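Compound dilution series incubated 60 min at 37° C with recombinant His-tagged human glucosidase I ([…]), after which trisaccharide substrate analog was added for 90 min at 37° C. Reaction quenched with 1.5M Tris pH 8; D-glucose detected by Amplex Red fluorescence, 560/590 nm. 4-PL curve fit of percent inhibition gave IC50.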

The target of assay [2] is T2, recombinant alpha-glucosidase II (murine full-length glucosidase II, alpha and beta subunits, Glu 2) (Mus musculus, UniProt Q8BHN3).
T2 construct: made in house; host or cells: HEK-293T cells transduced with BacMam viruses (75% alpha, 25% beta); protein harvested from culture supernatant
The assay can be described thus: Alpha-glucosidase II assay (4-methylumbelliferyl-alpha-D-pyranoside substrate, fluorescence). The note with it: Glucosidase 2; read-out: Glu2 IC50.

For assay [3], the target named is rat maltase (partially purified alpha-glucosidase from intestinal rat powder). The assay can be described thus: Intestinal alpha-glucosidase assay, maltose substrate (Glucose GO Kit). In short, it runs like this:
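Rat intestinal enzyme prep + test cpd dilutions, 60 min 37 °C; add maltose (maltase) or sucrose (sucrase), 30 min 37 °C; stop 90 °C 5 min. Glucose readout (glucose oxidase kit). IC50 from 4-PL fit of % inhibition vs conc.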

For assay [4], the target named is rat sucrase (partially purified alpha-glucosidase from intestinal rat powder) (Rattus norvegicus, UniProt P23739). The assay can be described thus: Intestinal alpha-glucosidase assay, sucrose substrate (Glucose GO Kit). In a few lines: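 Partially purified alpha-glucosidase from rat intestinal powder was preincubated 60 min at 37 °C with serial compound dilutions, then given maltose or sucrose and incubated 30 min at 37 °C.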

Some results are limits rather than exact numbers.

As usually defined, the IC50 is the point on the concentration scale where inhibition reaches its midpoint.

T2 sequence (O08795 15-521): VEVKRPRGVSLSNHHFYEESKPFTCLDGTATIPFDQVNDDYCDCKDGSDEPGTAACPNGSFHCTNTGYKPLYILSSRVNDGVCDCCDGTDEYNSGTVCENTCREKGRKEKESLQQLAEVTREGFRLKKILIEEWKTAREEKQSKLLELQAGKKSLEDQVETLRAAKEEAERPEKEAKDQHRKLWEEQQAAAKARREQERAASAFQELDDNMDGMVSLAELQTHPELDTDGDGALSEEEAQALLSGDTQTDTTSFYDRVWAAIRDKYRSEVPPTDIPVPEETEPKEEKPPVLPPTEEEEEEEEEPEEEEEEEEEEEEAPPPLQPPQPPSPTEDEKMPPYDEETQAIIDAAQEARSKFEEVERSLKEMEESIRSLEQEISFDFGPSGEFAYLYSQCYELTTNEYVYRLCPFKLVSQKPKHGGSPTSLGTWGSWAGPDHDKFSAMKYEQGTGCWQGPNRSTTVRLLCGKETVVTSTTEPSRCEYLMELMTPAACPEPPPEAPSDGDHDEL
T2 sequence (Q8BHN3 33-944): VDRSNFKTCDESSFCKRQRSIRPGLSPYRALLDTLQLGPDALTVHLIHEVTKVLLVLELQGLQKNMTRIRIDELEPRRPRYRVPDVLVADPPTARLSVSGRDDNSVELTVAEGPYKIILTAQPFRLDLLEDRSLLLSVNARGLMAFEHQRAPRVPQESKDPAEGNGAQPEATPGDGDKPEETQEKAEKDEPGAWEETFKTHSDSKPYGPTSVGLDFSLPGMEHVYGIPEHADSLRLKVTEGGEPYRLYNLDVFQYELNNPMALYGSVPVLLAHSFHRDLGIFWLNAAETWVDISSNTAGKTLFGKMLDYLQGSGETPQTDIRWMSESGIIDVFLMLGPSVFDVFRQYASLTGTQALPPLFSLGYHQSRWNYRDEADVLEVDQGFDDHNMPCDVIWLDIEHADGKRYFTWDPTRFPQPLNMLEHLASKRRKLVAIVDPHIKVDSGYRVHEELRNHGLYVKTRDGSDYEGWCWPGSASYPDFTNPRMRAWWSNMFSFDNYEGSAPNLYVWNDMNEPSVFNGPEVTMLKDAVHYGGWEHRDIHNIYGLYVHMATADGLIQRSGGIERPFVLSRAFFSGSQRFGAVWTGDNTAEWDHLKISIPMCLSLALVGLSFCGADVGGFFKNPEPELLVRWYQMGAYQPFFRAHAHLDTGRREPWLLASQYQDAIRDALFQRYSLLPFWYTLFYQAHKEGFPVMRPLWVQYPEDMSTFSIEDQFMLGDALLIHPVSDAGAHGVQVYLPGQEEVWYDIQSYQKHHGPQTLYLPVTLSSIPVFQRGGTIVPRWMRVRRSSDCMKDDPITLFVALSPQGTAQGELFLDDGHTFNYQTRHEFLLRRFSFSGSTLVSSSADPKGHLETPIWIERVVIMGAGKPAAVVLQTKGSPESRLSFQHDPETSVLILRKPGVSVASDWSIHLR
Chain of rat sucrase (partially purified alpha-glucosidase from intestinal rat powder) (P23739 whole entry): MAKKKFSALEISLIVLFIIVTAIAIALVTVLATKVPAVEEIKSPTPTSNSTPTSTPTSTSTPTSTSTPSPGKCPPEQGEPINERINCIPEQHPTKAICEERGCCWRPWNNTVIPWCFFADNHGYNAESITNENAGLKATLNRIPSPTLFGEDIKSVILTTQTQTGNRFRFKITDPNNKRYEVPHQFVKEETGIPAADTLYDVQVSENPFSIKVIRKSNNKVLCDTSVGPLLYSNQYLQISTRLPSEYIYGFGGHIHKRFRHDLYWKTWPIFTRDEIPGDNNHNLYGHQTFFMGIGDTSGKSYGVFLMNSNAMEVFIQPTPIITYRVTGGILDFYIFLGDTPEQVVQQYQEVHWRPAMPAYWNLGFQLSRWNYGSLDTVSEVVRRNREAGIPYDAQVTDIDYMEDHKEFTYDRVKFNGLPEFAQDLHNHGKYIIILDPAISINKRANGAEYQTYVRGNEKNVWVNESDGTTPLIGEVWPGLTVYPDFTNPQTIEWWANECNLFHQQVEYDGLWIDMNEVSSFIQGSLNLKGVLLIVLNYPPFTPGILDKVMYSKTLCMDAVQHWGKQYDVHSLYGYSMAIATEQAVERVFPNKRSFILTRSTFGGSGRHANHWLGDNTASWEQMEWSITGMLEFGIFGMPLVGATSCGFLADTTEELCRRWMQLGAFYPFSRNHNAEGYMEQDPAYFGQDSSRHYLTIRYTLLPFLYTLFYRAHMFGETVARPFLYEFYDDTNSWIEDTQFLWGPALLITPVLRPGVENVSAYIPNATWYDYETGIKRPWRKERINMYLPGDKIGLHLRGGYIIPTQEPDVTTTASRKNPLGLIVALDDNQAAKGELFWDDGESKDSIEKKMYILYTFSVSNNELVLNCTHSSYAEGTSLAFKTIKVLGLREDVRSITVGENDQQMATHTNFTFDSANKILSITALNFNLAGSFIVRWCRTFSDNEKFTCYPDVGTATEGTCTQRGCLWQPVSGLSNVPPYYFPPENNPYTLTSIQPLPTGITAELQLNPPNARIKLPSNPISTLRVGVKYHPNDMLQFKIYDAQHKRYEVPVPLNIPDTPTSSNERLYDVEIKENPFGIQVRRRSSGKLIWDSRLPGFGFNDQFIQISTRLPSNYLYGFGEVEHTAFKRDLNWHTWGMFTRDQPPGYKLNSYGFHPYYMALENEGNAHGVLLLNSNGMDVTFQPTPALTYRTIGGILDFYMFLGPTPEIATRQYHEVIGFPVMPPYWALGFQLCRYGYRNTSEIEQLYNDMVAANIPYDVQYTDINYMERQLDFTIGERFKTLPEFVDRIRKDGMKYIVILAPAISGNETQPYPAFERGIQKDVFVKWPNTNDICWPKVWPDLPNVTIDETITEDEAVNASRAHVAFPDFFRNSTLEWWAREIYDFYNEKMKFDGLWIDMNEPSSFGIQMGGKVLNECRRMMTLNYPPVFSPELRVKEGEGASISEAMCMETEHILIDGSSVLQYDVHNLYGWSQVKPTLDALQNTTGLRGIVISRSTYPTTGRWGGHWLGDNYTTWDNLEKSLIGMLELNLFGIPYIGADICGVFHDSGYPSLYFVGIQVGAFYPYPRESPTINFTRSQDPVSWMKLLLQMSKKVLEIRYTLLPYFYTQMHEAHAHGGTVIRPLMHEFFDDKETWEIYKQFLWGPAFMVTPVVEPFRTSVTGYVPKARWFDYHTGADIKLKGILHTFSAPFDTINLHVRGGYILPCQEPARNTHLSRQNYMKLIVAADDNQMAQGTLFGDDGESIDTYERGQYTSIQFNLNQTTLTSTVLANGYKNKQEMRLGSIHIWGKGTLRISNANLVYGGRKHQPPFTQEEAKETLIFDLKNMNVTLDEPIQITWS

`CN(C)Cc1ccc(NCCCCCCN2C[C@H](O)[C@@H](O)[C@H](O)[C@H]2CO)c(C#N)c1` [Compound 1257, 5-[(dimethylamino)methyl]-2-({6-[(2R,3R,4R,5S)-3,4,5-trihydroxy-2-(hydroxymethyl)piperidin-1-yl]hexyl}amino)benzonitrile]: the IC50 came out at 115 nM in assay [1], 19 nM in assay [2], 8 nM in assay [3] and 70 nM in assay [4].

On to `OC[C@@H]1[C@@H](O)[C@H](O)[C@@H](O)CN1CCCCCCNc1ccc(-c2ncccn2)cc1C(F)(F)F` [Compound 1258, (2R,3R,4R,5S)-2-(hydroxymethyl)-1-(6-{[4-(pyrimidin-2-yl)-2-(trifluoromethyl)phenyl]amino}hexyl)piperidine-3,4,5-triol], for which the IC50 in assay [1] was found to be 32 nM; in assay [2], 31 nM; in assay [3], 19 nM; in assay [4], 108 nM.

In the case of `CN(C)Cc1ccc(NCCCCCCN2C[C@H](O)[C@@H](O)[C@H](O)[C@H]2CO)c(C(F)(F)F)c1` [Compound 1259, (2R,3R,4R,5S)-1-[6-({4-[(dimethylamino)methyl]-2-(trifluoromethyl)phenyl}amino)hexyl]-2-(hydroxymethyl)piperidine-3,4,5-triol], the IC50 was 330 nM in assay [1], 72 nM in assay [2], 20 nM in assay [3] and 417 nM in assay [4].

For the compound `NS(=O)(=O)c1cc(-c2ncccn2)ccc1NCCCCCCN1C[C@H](O)[C@@H](O)[C@H](O)[C@H]1CO` [Compound 1265, 5-(pyrimidin-2-yl)-2-({6-[(2R,3R,4R,5S)-3,4,5-trihydroxy-2-(hydroxymethyl)piperidin-1-yl]hexyl}amino)benzene-1-sulfonamide], the IC50 was 282 nM in assay [1], 12 nM in assay [2], 5 nM in assay [3] and 98 nM in assay [4].

Regarding `NC(=O)c1cc(-c2ncccn2)ccc1NCCCCCCN1C[C@H](O)[C@@H](O)[C@H](O)[C@H]1CO` [Compound 1266, 5-(pyrimidin-2-yl)-2-({6-[(2R,3R,4R,5S)-3,4,5-trihydroxy-2-(hydroxymethyl)piperidin-1-yl]hexyl}amino)benzamide], the IC50 in assay [1] turned out to be 180 nM; in assay [2] it was 7 nM; in assay [3] it was 2 nM; in assay [4], 140 nM.

In the case of `[N-]=[N+]=Nc1ccc(NCCOC(=O)NCCN2C[C@H](O)[C@@H](O)[C@H](O)[C@H]2CO)c([N+](=O)[O-])c1` [Compound 1268, 2-[(4-azido-2-nitrophenyl)amino]ethyl N-{2-[(2R,3R,4R,5S)-3,4,5-trihydroxy-2-(hydroxymethyl)piperidin-1-yl]ethyl}carbamate], the IC50 in assay [1] stood at 1990 nM; in assay [2], 32 nM; in assay [3] it was 68 nM; in assay [4] it was 363 nM.

`[N-]=[N+]=Nc1ccc(NCCC(O)C(O)CCN2C[C@H](O)[C@@H](O)[C@H](O)[C@H]2CO)c([N+](=O)[O-])c1` (stereo partly drawn) [Compound 1270, (2R,3R,4R,5S)-1-{6-[(4-azido-2-nitrophenyl)amino]-3,4-dihydroxy-hexyl}-2-(hydroxymethyl)piperidine-3,4,5-triol]: the IC50 amounted to 358 nM in assay [1], 46 nM in assay [2], 57 nM in assay [3] and 350 nM in assay [4].

For `[N-]=[N+]=Nc1ccc(NCCN2CC(OCCN3C[C@H](O)[C@@H](O)[C@H](O)[C@H]3CO)C2)c([N+](=O)[O-])c1` [Compound 1271, (2R,3R,4R,5S)-1-{2-[(1-{2-[(4-azido-2-nitrophenyl)amino]ethyl}azetidin-3-yl)oxy]ethyl}-2-(hydroxymethyl)piperidine-3,4,5-triol], the IC50 in assay [1] was 1070 nM; in assay [2], 539 nM; in assay [3], 33 nM; in assay [4], 266 nM.

In the case of `[N-]=[N+]=Nc1ccc(NCCn2cc(CCN3C[C@H](O)[C@@H](O)[C@H](O)[C@H]3CO)nn2)c([N+](=O)[O-])c1` [Compound 1272, (2R,3R,4R,5S)-1-[2-(1-{2-[(4-azido-2-nitrophenyl)amino]ethyl}-1H-1,2,3-triazol-4-yl)ethyl]-2-(hydroxymethyl)piperidine-3,4,5-triol], the IC50 in assay [1] worked out at 1800 nM; in assay [2], 39 nM; in assay [3] it was 239 nM; in assay [4], 1880 nM.

As for `[N-]=[N+]=Nc1ccc(NCCN2CCN(CCN3C[C@H](O)[C@@H](O)[C@H](O)[C@H]3CO)CC2)c([N+](=O)[O-])c1` [Compound 1273, (2R,3R,4R,5S)-1-[2-(4-{2-[(4-azido-2-nitrophenyl)amino]ethyl}piperazin-1-yl)ethyl]-2-(hydroxymethyl)piperidine-3,4,5-triol], the IC50 in assay [1] worked out at 13000 nM; in assay [2], 548 nM; in assay [3] it was 646 nM; in assay [4] it was 21600 nM.

Take `[N-]=[N+]=Nc1ccc(NCCS(=O)(=O)CCCN2C[C@H](O)[C@@H](O)[C@H](O)[C@H]2CO)c([N+](=O)[O-])c1` [Compound 1274, (2R,3R,4R,5S)-1-(3-{2-[(4-azido-2-nitrophenyl)amino]ethane-sulfonyl}propyl)-2-(hydroxymethyl)piperidine-3,4,5-triol]: the IC50 in assay [1] was determined as 1550 nM; in assay [2], 48 nM; in assay [3], 151 nM; in assay [4] it was 738 nM.

`[N-]=[N+]=Nc1ccc(NCCNS(=O)(=O)NCCN2C[C@H](O)[C@@H](O)[C@H](O)[C@H]2CO)c([N+](=O)[O-])c1` [Compound 1275, (2R,3R,4R,5S)-1-{2-[({2-[(4-azido-2-nitrophenyl)amino]ethyl}sulfamoyl)amino]ethyl}-2-(hydroxymethyl)piperidine-3,4,5-triol]: the IC50 in assay [1] is 4060 nM; in assay [2], 366 nM; in assay [3] it was 288 nM; in assay [4], 413 nM.

In the case of `[N-]=[N+]=Nc1ccc(NCCNC(=O)NCCN2C[C@H](O)[C@@H](O)[C@H](O)[C@H]2CO)c([N+](=O)[O-])c1` [Compound 1276, 1-{2-[(4-azido-2-nitrophenyl)amino]ethyl}-3-{2-[(2R,3R,4R,5S)-3,4,5-trihydroxy-2-(hydroxymethyl)piperidin-1-yl]ethyl}urea], the IC50 in assay [1] is 2440 nM; in assay [2], 39 nM; in assay [3] it was 49 nM; in assay [4], 316 nM.

As for `Nc1ccc(NCCCCCCCCN2C[C@H](O)[C@@H](O)[C@H](O)[C@H]2CO)c([N+](=O)[O-])c1Cl` [Compound 1277, (2R,3R,4R,5S)-1-{8-[(4-amino-3-chloro-2-nitrophenyl)amino]octyl} 2-(hydroxymethyl)piperidine-3,4,5-triol], the IC50 in assay [1] is 166 nM; in assay [2], below 1 nM; in assay [3], 52 nM; in assay [4], 133 nM.

Turning to `CC#Cc1ccc(NCCCCCCN2C[C@H](O)[C@@H](O)[C@H](O)[C@H]2CO)c([N+](=O)[O-])c1` [Compound 1290, (2R,3R,4R,5S)-2-(hydroxymethyl)-1-(6-{[2-nitro-4-(prop-1-yn-1-yl)phenyl]amino}hexyl)piperidine-3,4,5-triol], the IC50 was 36 nM in assay [1], 1.2 nM in assay [2], below 10 nM in assay [3] and below 10 nM in assay [4].

With `[N-]=[N+]=Nc1ccc(NCCCCCCN2C[C@H](O)[C@@H](O)[C@H](O)[C@H]2CO)c(C(N)=O)c1` [Compound 1296, 5-azido-2-({6-[(2R,3R,4R,5S)-3,4,5-trihydroxy-2-(hydroxymethyl)piperidin-1-yl]hexyl}amino)benzamide], the IC50 in assay [1] is 142 nM; in assay [2], 29 nM; in assay [3], below 10 nM; in assay [4] it was 494 nM.
